Reference: patent publication US11578061B2, “Inhibitors of LRRK2 kinase” (Halia Therapeutics, Inc., priority 2021, dated 2023)

Target: recombinant human LRRK2 (catalytic domain only [amino acids 970-2527], GST-tagged) (Homo sapiens (Human), UniProt Q5S007)
Test: LRRK2 Enzymatic Assay
Assay type: biochemical
Settings: LRRKtide substrate, [32P]-ATP
Method in brief: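 GST-tagged catalytic domain (aa 970-2527) at 30 nM with 20 μM LRRKtide in HEPES pH 7.5/MgCl2 buffer, 1% DMSO; compounds (10 μM to 0.5 nM) preincubated 20 min, then [32P]-ATP added for 2 h at room temperature. P81 phosphocellulose capture; activity as % of vehicle, IC50 by curve fit.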

Chain of recombinant human LRRK2 (catalytic domain only [amino acids 970-2527], GST-tagged) (Q5S007 970-2527): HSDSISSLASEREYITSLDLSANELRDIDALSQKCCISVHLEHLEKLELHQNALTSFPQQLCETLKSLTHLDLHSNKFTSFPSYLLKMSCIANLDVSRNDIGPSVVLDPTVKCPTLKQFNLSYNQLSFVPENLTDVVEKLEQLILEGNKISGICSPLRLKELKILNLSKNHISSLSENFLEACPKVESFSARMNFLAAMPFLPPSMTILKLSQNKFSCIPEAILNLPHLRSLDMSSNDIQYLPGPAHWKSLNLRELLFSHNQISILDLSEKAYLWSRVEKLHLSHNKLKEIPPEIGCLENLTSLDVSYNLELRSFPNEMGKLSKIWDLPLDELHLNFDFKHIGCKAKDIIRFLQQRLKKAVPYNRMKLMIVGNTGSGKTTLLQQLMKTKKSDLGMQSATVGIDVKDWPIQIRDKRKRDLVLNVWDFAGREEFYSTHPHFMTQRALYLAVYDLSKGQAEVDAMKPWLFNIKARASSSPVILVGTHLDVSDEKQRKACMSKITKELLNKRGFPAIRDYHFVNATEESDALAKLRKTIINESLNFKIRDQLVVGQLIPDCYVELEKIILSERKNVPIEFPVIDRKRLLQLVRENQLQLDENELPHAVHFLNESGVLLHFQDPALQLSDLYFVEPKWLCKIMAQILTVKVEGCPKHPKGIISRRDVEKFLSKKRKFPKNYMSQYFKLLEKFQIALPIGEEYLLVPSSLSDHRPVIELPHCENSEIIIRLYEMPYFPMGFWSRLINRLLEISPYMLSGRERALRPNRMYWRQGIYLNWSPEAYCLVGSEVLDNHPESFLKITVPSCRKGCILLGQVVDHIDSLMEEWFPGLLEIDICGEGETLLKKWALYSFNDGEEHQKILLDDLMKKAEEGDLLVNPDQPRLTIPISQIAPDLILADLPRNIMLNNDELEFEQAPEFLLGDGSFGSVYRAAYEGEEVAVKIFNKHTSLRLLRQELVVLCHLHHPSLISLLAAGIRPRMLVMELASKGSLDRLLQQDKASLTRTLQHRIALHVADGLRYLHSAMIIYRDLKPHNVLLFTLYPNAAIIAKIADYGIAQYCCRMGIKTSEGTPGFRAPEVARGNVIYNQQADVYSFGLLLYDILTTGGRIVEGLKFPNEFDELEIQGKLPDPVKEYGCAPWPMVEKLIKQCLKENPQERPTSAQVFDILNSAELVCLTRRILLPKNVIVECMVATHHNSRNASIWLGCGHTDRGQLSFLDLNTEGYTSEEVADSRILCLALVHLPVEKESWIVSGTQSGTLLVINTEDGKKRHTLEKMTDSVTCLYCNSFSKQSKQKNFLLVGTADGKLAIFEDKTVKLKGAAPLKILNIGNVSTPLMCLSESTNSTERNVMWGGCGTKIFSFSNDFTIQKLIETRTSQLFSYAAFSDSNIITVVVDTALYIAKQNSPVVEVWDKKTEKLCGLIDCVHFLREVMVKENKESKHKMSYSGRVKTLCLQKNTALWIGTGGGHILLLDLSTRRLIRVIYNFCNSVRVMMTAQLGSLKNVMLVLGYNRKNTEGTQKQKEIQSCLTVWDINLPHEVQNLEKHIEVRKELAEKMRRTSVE

SMILES	IC50
Cc1nc(Nc2ccc(N3C[C@@H](C)O[C@@H](C)C3)cc2)nc(OC[C@H]2CC[C@H](O)CC2)c1F [Example 266, (1R,4R)-4-(((2-((4-((2S,6R)-2,6-dimethylmorpholino)phenyl)amino)-5-fluoro-6-methylpyrimidin-4-yl)oxy)methyl)cyclohexan-1-ol]	> 400 nM
CC(=O)N[C@H]1CC[C@H](COc2nc(Nc3ccc(N4C5CCC4COC5)cc3)ncc2F)CC1 [Example 181, N-((1R,4R)-4-(((2-((4-(3-oxa-8-azabicyclo[3.2.1]octan-8-yl)phenyl)amino)-5-fluoropyrimidin-4-yl)oxy)methyl)cyclo-hexyl)acetamide]	< 50 nM
CC(=O)NC12CCC(COc3ccnc(Nc4ccc(N5CCOCC5)cc4)n3)(CC1)CC2 [Example 77, N-(4-(((2-((4-morpholinophenyl)amino)pyrimidin-4-yl)oxy)methyl)bicyclo [2.2.2]octan-1-yl)acetamide]	> 400 nM
C[C@@H]1CN(c2ccc(Nc3nc(Cl)c(F)c(OC[C@H]4CC[C@H](O)CC4)n3)cc2)C[C@H](C)O1 [Example 247, (1R,4R)-4-(((6-chloro-2-((4-((2S,6R)-2,6-dimethylmorpholino)phenyl)amino)-5-fluoropyrimidin-4-yl)oxy)methyl)cyclohexan-1-ol]	> 400 nM
FC(F)(F)CN1CCC(COc2nc(Nc3ccc(N4CCOCC4)cc3)ncc2Cl)CC1 [Example 114, 5-chloro-N-(4-morpholino-phenyl)-4-((1-(2,2,2-trifluoroethyl)piperidin-4-yl)methoxy) pyrimidin-2-amine]	> 400 nM
Cc1nn(C(C)(C)C#N)cc1Nc1nccc(OCC2(F)CCNCC2)n1 [Example 19, 2-(4-((4-((4-fluoropiperidin-4-yl)methoxy)pyrimidin-2-yl)amino)-3-methyl-1H-pyrazol-1-yl)-2-methylpropanenitrile]	200 to 400 nM
CCN1CCN(Cc2ccc(Nc3ncc(Cl)c(OCC4CCC(O)CC4)n3)nc2)CC1 (stereo not drawn) [Example 131, 4-(((5-chloro-2-((5-((4-ethylpiperazin-1-yl)methyl)pyridin-2-yl)amino)pyrimidin-4-yl)oxy)methyl)cyclohexan-1-ol]	> 400 nM
CC1(O)CCC(COc2nc(Nc3ccc(N4CCOCC4)cc3)ncc2F)CC1 (stereo not drawn) [Example 251, 4-(((5-fluoro-2-((4-morpholinophenyl)amino)pyrimidin-4-yl)oxy)methyl)-1-methylcyclohexan-1-ol]	50 to 200 nM
Cc1nn(C(C)(C)C#N)cc1Nc1ncc(Cl)c(OCC2CN(C)C2)n1 [Example 68, 2-(4-((5-chloro-4-((1-methylazetidin-3-yl)methoxy)pyrimidin-2-yl)amino)-3-methyl-1H-pyrazol-1-yl)-2-methylpropanenitrile]	> 400 nM
Cn1ccc(Nc2nccc(OC[C@H]3CC[C@@H](N)CC3)n2)n1 [Example 3, 4-(((1S,4S)-4-aminocyclohexyl)methoxy)-N-(1-methyl-1H-pyrazol-3-yl) pyrimidin-2-amine]	50 to 200 nM
CCn1cc(Nc2ncc(F)c(OC[C@H]3CC[C@H](O)CC3)n2)cn1 [Example 217, (1R,4R)-4-(((2-((1-ethyl-1H-pyrazol-4-yl)amino)-5-fluoropyrimidin-4-yl)oxy)methyl)cyclohexan-1-ol]	50 to 200 nM
CC(=O)NC12C3C4C1C1C2C3C41COc1ccnc(Nc2ccc(N3C[C@@H](C)O[C@@H](C)C3)cc2)n1 (stereo partly drawn) [Example 79, N-(4-(((2-((4-((2S,6R)-2,6-dimethylmorpholino)phenyl)amino)py-rimidin-4-yl)oxy)methyl)cuban-1-yl)acetamide]	200 to 400 nM
CC(=O)N[C@H]1CC[C@H](COc2nc(Nc3cn(C(F)F)nc3C)ncc2F)CC1 [Example 197, N-((1R,4R)-4-(((2-((1-(difluoromethyl)-3-methyl-1H-pyrazol-4-yl)amino)-5-fluoropyrimidin-4-yl)oxy)methyl)cyclo-hexyl)acetamide]	50 to 200 nM
CC(C)(O)[C@H]1CC[C@H](COc2nc(Nc3ccc(N4C5CCC4COC5)cc3)ncc2F)CC1 [Example 254, 2-((1S,4S)-4-(((2-((4-(3-oxa-8-azabicyclo[3.2.1]octan-8-yl)phenyl)amino)-5-fluoropyrimidin-4-yl)oxy)methyl)cyclohexyl)propan-2-ol]	50 to 200 nM
CC(C)(C#N)n1cc(Nc2ncc(F)c(OC[C@H]3CC[C@H](O)CC3)n2)cn1 [Example 221]	50 to 200 nM
CC(=O)N[C@H]1CC[C@H](COc2nc(Nc3cn(C)nc3C)ncc2F)CC1 [Example 194, N-((1R,4R)-4-(((2-((1,3-dimethyl-1H-pyrazol-4-yl)amino)-5-fluoropyrimidin-4-yl)oxy)methyl)cyclo-hexyl)acetamide]	50 to 200 nM

Second part, the molecule after the results:

IC50	SMILES
50 to 200 nM	CCN1CCN(c2ccc(Nc3ncc(Cl)c(OCC4CCC(O)CC4)n3)nc2)CC1 (stereo not drawn) [Example 132, 4-(((5-chloro-2-((5-(4-ethylpiperazin-1-yl)pyridin-2-yl)amino)pyrimidin-4-yl)oxy)methyl)cyclohexan-1-ol]
< 50 nM	NC[C@H]1CC[C@H](COc2ccnc(Nc3ccc(N4CCOCC4)cc3)n2)CC1 [Example 12, 4-(((1R,4R)-4-(aminomethyl)cyclohexyl)methoxy)-N-(4-morpholinophenyl) pyrimidin-2-amine]
< 50 nM	CC(=O)NC1CCCC(COc2nc(Nc3ccc(N4C[C@@H](C)O[C@@H](C)C4)cc3)ncc2F)CC1 (stereo partly drawn) [Example 93, N-(4-(((2-((4-((2S,6R)-2,6-dimethylmorpholino)phenyl)amino)-5-fluoropyrimidin-4-yl)oxy)methyl)cyclo-heptyl)acetamide]
< 50 nM	Cc1nn(C(C)(C)C#N)cc1Nc1ncc(Cl)c(OCC2CCC(C)(O)CC2)n1 (stereo not drawn) [Example 135, 2-(4-((5-chloro-4-((4-hydroxy-4-methylcyclohexyl)methoxy)pyrimidin-2-yl)amino)-3-methyl-1H-pyrazol-1-yl)-2-methylpropanenitrile]
50 to 200 nM	C[C@@H]1CN(c2ccc(Nc3ncc(F)c(OCC4(F)CCN(C)CC4)n3)cc2)C[C@H](C)O1 [Example 65, N-(4-((2R,6S)-2,6-dimethylmorpholino)phenyl)-5-fluoro-4-((4-fluoro-1-methylpiperidin-4-yl)methoxy)pyrimidin-2-amine]
< 50 nM	Cc1nn(C(C)(C)C#N)cc1Nc1ncc(F)c(OC[C@H]2CC[C@@H](O)CC2)n1 [Example 126, 2-(4-((5-fluoro-4-(((1S,4S)-4-hydroxycyclohexyl)methoxy)pyrimidin-2-yl)amino)-3-methyl-1H-pyrazol-1-yl)-2-methylpropanenitrile]
< 50 nM	CNC[C@H]1CC[C@H](COc2nc(Nc3cn(C4CC(C#N)C4)nc3C)ncc2Cl)CC1 (stereo partly drawn) [Example 51, 3-(4-((5-chloro-4-(((1R,4R)-4-((methylamino)methyl)cyclohexyl)methoxy)pyrimidin-2-yl)amino)-3-methyl-1H-pyrazol-1-yl)cyclobutane-1-carbonitrile]
50 to 200 nM	Cc1c(Nc2ncc(F)c(OC[C@H]3CC[C@H](O)CC3)n2)cnn1C(F)F [Example 235, (1R,4R)-4-(((2-((1-(difluoromethyl)-5-methyl-1H-pyrazol-4-yl)amino)-5-fluoropyrimidin-4-yl)oxy)methyl)cyclohexan-1-ol]
< 50 nM	CC(=O)N[C@H]1CC[C@H](COc2nc(Nc3cn(C(C)(C)C#N)nc3C)ncc2Cl)CC1 [Example 81, N-((1R,4R)-4-(((5-chloro-2-((1-(2-cyanopropan-2-yl)-3-methyl-1H-pyrazol-4-yl)amino)pyrimidin-4-yl)oxy)methyl)cyclo-hexyl)acetamide]
50 to 200 nM	CC(=O)N[C@H]1CC[C@H](COc2ccnc(Nc3ccc(N4C[C@@H](C)O[C@@H](C)C4)cc3)n2)CC1 [Example 73, N-((1R,4R)-4-(((2-((4-((2R,6S)-2,6-dimethylmorpholino)phenyl)amino)pyrimidin-4-yl)oxy)methyl)cyclo-hexyl)acetamide]
50 to 200 nM	CN[C@H]1CC[C@H](COc2nc(Nc3ccc(N4CCOCC4)cc3)ncc2C2CC2)CC1 [Example 45, 5-cyclopropyl-4-(((1R,4R)-4-(methylamino)cyclo-hexyl)methoxy)-N-(4-morpholinophenyl) pyrimidin-2-amine]
< 50 nM	N[C@H]1CC[C@H](COc2ccnc(Nc3ccc(N4CCOCC4)cc3)n2)CC1 [Example 2, 4-(((1R,4R)-4-aminocyclohexyl)methoxy)-N-(4-morpholinophenyl) pyrimidin-2-amine]
50 to 200 nM	Cn1cc(Nc2ncc(F)c(OC[C@H]3CC[C@H](O)CC3)n2)c(Cl)n1 [Example 237, (1R,4R)-4-(((2-((3-chloro-1-methyl-1H-pyrazol-4-yl)amino)-5-fluoropyrimidin-4-yl)oxy)methyl)cyclohexan-1-ol]
50 to 200 nM	Cc1nn(C2CC2)cc1Nc1ncc(F)c(OC[C@H]2CC[C@H](O)CC2)n1 [Example 231, (1R,4R)-4-(((2-((1-cyclopropyl-3-methyl-1H-pyrazol-4-yl)amino)-5-fluoropyrimidin-4-yl)oxy)methyl)cyclohexan-1-ol]
< 50 nM	CC(=O)N1CCC(COc2nc(Nc3cn(C(C)(C)C#N)nc3C)ncc2Cl)C(F)(F)C1 (stereo not drawn) [Example 96, 2-(4-((4-((1-acetyl-3,3-difluoropiperidin-4-yl)methoxy)-5-chloropyrimidin-2-yl)amino)-3-methyl-1H-pyrazol-1-yl)-2-methylpropanenitrile]
< 50 nM	CC(=O)N[C@H]1CC[C@@H](COc2nc(Nc3cn(C(C)(C)C#N)nc3C)ncc2F)C1 [Example 180, N-((1S,3R)-3-(((2-((1-(2-cyanopropan-2-yl)-3-methyl-1H-pyrazol-4-yl)amino)-5-fluoropyrimidin-4-yl)oxy)methyl)cyclo-pentyl)acetamide]
< 50 nM	Cc1nn(C(C)(C)C#N)cc1Nc1ncc(Cl)c(OCC2CC3(C2)CN(C)C3)n1 [Example 70, 2-(4-((5-chloro-4-((2-methyl-2-azaspiro[3.3]heptan-6-yl)methoxy)pyrimidin-2-yl)amino)-3-methyl-1H-pyrazol-1-yl)-2-methylpropanenitrile]
